Data set [1] has as its system clinical remission of ulcerative colitis. The class given is in vivo, human. To be noted: UC patients treated with HHSP.
The subject of data set [2] is TNF-α-driven IL-8 secretion by HT29 epithelial cells. Briefly: Anti-inflammatory assay in IECs (TNF-α-driven IL-8 secretion). The class given is cell-based, human. As to conditions: 1 hour pre-treatment.
Data set [3] concerns AhR-mediated cyp1a1 expression. Put plainly: AhR-mediated cyp1a1 expression in epithelial colonic organoids. The method, then: In FIG. 7A, the metabolites (3-indole acetic acid, 3-methylindole, indole, indoleacrylate, 3-indole butyric acid, and indolepropionic acid, IPA) were added at three different concentrations (50, 100, and 200 μM), with increasing concentrations from right to left. Untreated epithelial organoids (Untd) were used as a negative control. In FIG. 7B, supernatants were collected from cultures containing different bacteria (Clostridium sporogenes 1, Clostridium sporogenes 2, Peptostreptococcus stomatis, Clostridium glycolicum, Bacteroides sp. 4 1 36) and were provided to the epithelial organoids at two different concentrations (5% and 2% final concentration), with the left bar corresponding to the higher concentration. The SCFAs and tryptophan metabolites present in each supernatant (from FIGS. 17 and 18) are indicated. IPA: indolepropionic acid; IAcryl: Indole acrylate; 3Mind: 3-methylindole; I3Carb: indole-3-carbinol; C3: propionate; C4: butyrate; C5: valerate; C6: hexanoate; BCFA: branch chain fatty acids.
AhR activation is reportedly associated with strengthening of the intestinal epithelial barrier and mucosal homeostasis in the intestine by inducing broad changes in gene expression. […] An increase in Cyp1a1 expression is considered to be a specific measure of AhR-mediated gene expression.

The subject of data set [4] is HDAC enzymes (HeLa nuclear extract). Briefly: HDAC inhibition assay (HDAC-Glo I/II, HeLa nuclear extract). Type of data set: biochemical. As to conditions: for HDAC Inhibition in any C source (25/18% cutoff): single strain supernatants, PY medium with one of seven C sources.
Data set [5] has as its system primary human colon epithelial cell monolayer. Put plainly: Primary epithelial cell monolayer barrier integrity assay (IFN-γ, FITC-dextran). As to conditions: 5 mM.
Description: The assays were performed using a primary epithelial cell monolayer barrier integrity assay. […] The addition of interferon-gamma (IFN-γ) disrupts the tight junctions of the epithelial monolayer and induces apoptosis of epithelial cells. The leakiness of the membrane can be assessed by adding FITC-dextran to the apical side of the apparatus and measuring how rapidly it can pass to the basolateral compartment. A leaky monolayer will allow FITC-dextran to the basal side of the apparatus more quickly than a monolayer with an intact monolayer.
Briefly, the barrier integrity assay was conducted as follows. Primary human colon organoid cultures established from isolated colon crypts were grown and expanded in Matrigel® (Corning) and 50% L-cell conditioned medium containing Wnt3a, R-spondin 3 and Noggin (L-WRN) as described by VanDussen et al. containing 10 uM Y-27632 and 10 uM SB43152 (Gut 64:911-920, 2015). […] After the 48-hour incubation, colonic epithelial monolayer permeability was assessed by adding 10 μL of 10 ng/ml FITC-Dextran (4 kDa, Sigma) to the apical interface, the organoids were incubated for 1 hour and then 100 μL of medium was collected from the basolateral compartment of each transwell and transferred to a 96 well plate for fluorescence detection.
A short description of data set [6]: GC-MS of SCFAs, MCFAs, BCFAs and tryptophan metabolites in bacterial supernatants. To be noted: single strain supernatants. The source says: FIG. 18 provides a table listing bacterial species and the short chain fatty acids (SCFAs), medium chain fatty acids (MCFAs), and branched chain fatty acids (BCFAs) produced by each of the species. […] The limit of detection for each of the fatty acids is provided in the row labeled “Limit of Detection (LOD).” The SCFAs measured included: acetic acid, propanoic acid, and butanoic acid. The MCFAs measured included: pentanoic acid, hexanoic acid, heptanoic acid. The BCFAs measured included: 2-methyl-propanopic acid, 3-methyl-butanoic acid, and 4-methyl-pentaoic acid.
FIG. 19 provides a table listing bacterial species and tryptophan metabolites produced by the species. […] The limit of detection for each of the fatty acids is provided in the row labeled “Limit of Detection (LOD).” The tryptophan metabolites measured included: indole, 3-methylindole, indol-3-propanoic acid, indole-3-butyric acid, 3-indoleacrylic acid, tryptamine, indole-3-acetic acid, 3-indole-glycoxylic acid, 2-picolinic acid, and 5-hydroxytryptamine.
As described supra, certain tryptophan (Trp) metabolites were associated with remission in patients treated with an HHSP. […] The presence of the tryptophan metabolites was determined using a colorimetric assay for detection of indolic compounds (Indole Reagent, Anaerob Systems). […]

Setting [7] is: intestinal epithelial organoids.

The values that follow come from patent US20230125810A1, “DESIGNED BACTERIAL COMPOSITIONS AND USES THEREOF” (Seres Therapeutics, Inc., priority 2019, published 2023).

Like-named read-outs stand apart in the source and are kept apart here.

Clostridium bolteae: the “Associated Clinical Outcome” value in data set [1] is “Remitter”. As for `CCC(=O)O` [propionate], in data set [2], the “TNF-α-dependent IL-8 secretion by IECs” value was “reduced levels of TNF-α-dependent IL-8 secretion”. As for `O=C(O)/C=C/c1c[nH]c2ccccc12` [indoleacrylate], in data set [3] (setting [7]), the “AhR-mediated cyp1a1 expression” value was “induced AhR-mediated cyp1a1 expression”.

In turn, Clostridium sp 7 2 43FAA returned an HDAC cluster assignment in data set [4] (pattern of HDAC inhibition across nutrient sources) of 5. For the same compound, in data set [4], the “HDAC Inhibition in any C source (25/18% cutoff)” value is 1 (If a strain exhibits HDACi activity of at least 0.25 in any nutrient, or 0.18 in fucose, it is considered to have HDACi activity and it is marked with “1”). In the case of `Cc1c[nH]c2ccccc12` [3-methylindole], the “AhR-mediated cyp1a1 expression” value in data set [3] (human) was “induced AhR-mediated cyp1a1 expression”. As for `CC(=O)O` [acetate], in data set [2], the “TNF-α-dependent IL-8 secretion by IECs” value was “reduced levels of TNF-α-dependent IL-8 secretion”.

In the case of Clostridium disporicum, in data set [4], the HDAC cluster assignment was found to be 0; the “HDAC Inhibition in any C source (25/18% cutoff)” value was 1 (If a strain exhibits HDACi activity of at least 0.25 in any nutrient, or 0.18 in fucose, it is considered to have HDACi activity and it is marked with “1”). Clostridium tertium: in data set [4], the HDAC cluster assignment was found to be 5; the “HDAC Inhibition in any C source (25/18% cutoff)” value is 1 (If a strain exhibits HDACi activity of at least 0.25 in any nutrient, or 0.18 in fucose, it is considered to have HDACi activity and it is marked with “1”).

As to Clostridium clostridioforme, in data set [4], the HDAC cluster assignment came to 6; the “HDAC Inhibition in any C source (25/18% cutoff)” value was 1 (If a strain exhibits HDACi activity of at least 0.25 in any nutrient, or 0.18 in fucose, it is considered to have HDACi activity and it is marked with “1”).

On to Clostridium mayombei, for which, in data set [4], the HDAC cluster assignment is 2; the “HDAC Inhibition in any C source (25/18% cutoff)” value was 1 (If a strain exhibits HDACi activity of at least 0.25 in any nutrient, or 0.18 in fucose, it is considered to have HDACi activity and it is marked with “1”).

With `CCCC(=O)O` [butyrate], the decrease of permeability in data set [5] is given as 50%. On to Clostridium glycolicum, for which, in data set [6], the hexanoate production result was “Hexanoate producing”. As to `c1ccc2[nH]ccc2c1` [indole], the “AhR-mediated cyp1a1 expression” value in data set [3] (setting [7]) is “induced AhR-mediated cyp1a1 expression”. Take Parabacteroides distasonis: in data set [4], the HDAC cluster assignment is listed as 3; the “HDAC Inhibition in any C source (25/18% cutoff)” value was 1 (If a strain exhibits HDACi activity of at least 0.25 in any nutrient, or 0.18 in fucose, it is considered to have HDACi activity and it is marked with “1”). For `O=C(O)Cc1c[nH]c2ccccc12` [3-indole acetic acid], in data set [3] (setting [7]), the “AhR-mediated cyp1a1 expression” value is reported as “induced AhR-mediated cyp1a1 expression”. For Clostridium symbiosum, in data set [1], the “Associated Clinical Outcome” value was “Remitter”.
